The results in this text go back to ChEMBL document CHEMBL4673321, “15β-Senecioyl-oxy-ent-kaur-16-en-19-oic Acid, a Diterpene Isolated from Baccharis lateralis, as Promising Oral Compound for the Treatment of Schistosomiasis” (J Nat Prod, 2020).

Data set [1] is described as follows: Toxicity in mouse infected with Schistosoma mansoni BH cercariae at 400 mg/kg, po after 14 days administered as dose starting on day 49 post-infection and measured after 14 days. It is filed as organism-based. To be noted: in vivo, 336 h, time 14 day.
Data set [2] has as its system Schistosoma mansoni. Nature of the data set: Antischistosomal activity against Schistosoma mansoni BH cercariae infected in mouse assessed as reduction in spleen weight at 400 mg/kg, po administered as dose starting on day 49 post-infection and measured after 14 days post treatment relative to control. It is filed as functional. Set-up: scale not given: the % may be the effect or the level left. To be noted: time 14 day.

For data set [3], the system named is Schistosoma mansoni. Nature of the data set: Antischistosomal activity against Schistosoma mansoni BH cercariae infected in mouse assessed as reduction in liver weight at 400 mg/kg, po administered as dose starting on day 49 post-infection and measured after 14 days post treatment relative to control. It is filed as functional. Also on record: scale not given: the % may be the effect or the level left. To be noted: time 14 day.

Data set [4] concerns Schistosoma mansoni. Briefly: Antischistosomal activity against Schistosoma mansoni BH cercariae infected in mouse assessed as reduction in egg burden in fecal at 400 mg/kg, po administered as dose starting on day 49 post-infection and measured after 14 days post treatment relative to control. The class given is functional. Set-up: scale not given: the % may be the effect or the level left. To be noted: time 14 day.

The subject of data set [5] is Schistosoma mansoni. Nature of the data set: Antischistosomal activity against Schistosoma mansoni BH cercariae infected in mouse assessed as reduction in egg burden in wall of intestine at 400 mg/kg, po administered as dose starting on day 49 post-infection and measured after 14 days post treatment relative to control. It is filed as functional. To be noted: time 14 day. Set-up: scale not given: the % may be the effect or the level left.

In data set [6] the test system is Schistosoma mansoni. Nature of the data set: Antischistosomal activity against Schistosoma mansoni BH cercariae infected in mouse assessed as reduction in worm burden at 400 mg/kg, po administered as single dose starting on day 49 post-infection and measured after 14 days post treatment relative to control. To be noted: time 14 day. Also on record: scale not given: the % may be the effect or the level left. It is filed as functional.

Data set [7] deals with Schistosoma mansoni. Nature of the data set: Antischistosomal activity against female Schistosoma mansoni BH assessed as dilation of ovaries at 25 uM after 72 hrs microscopic method. The class given is functional, organism-based.
For data set [8], the system named is Schistosoma mansoni. Nature of the data set: Antischistosomal activity against male Schistosoma mansoni BH assessed as dilation of testes at 25 uM after 72 hrs microscopic method. It is filed as functional, organism-based.
Data set [9] deals with Schistosoma mansoni. Nature of the data set: Antischistosomal activity against Schistosoma mansoni BH assessed as reduction in oviposition at 6.25 to 25 uM after 72 hrs light microscopic method. The class given is functional, organism-based. To be noted: dose 6.25-25 µM.
Data set [10] concerns Schistosoma mansoni. Briefly: Antischistosomal activity against Schistosoma mansoni BH assessed as reduction in parasitic viability at 25 uM after 24 hrs inverted light microscopic method. The class given is functional, organism-based.
The test system of data set [11] is Schistosoma mansoni. Nature of the data set: Antischistosomal activity against Schistosoma mansoni BH assessed as reduction in parasitic viability after 72 hrs by inverted microscopic method. It is filed as functional.
The nature of data set [12]: Cytotoxicity against human HaCaT cells assessed as reduction in cell viability after 48 hrs by MTT assay. The class given is cell-based.
Data set [13] is described as follows: Selectivity index, ratio of CC50 for cytotoxicity against human HaCaT cells to LC50 for antischistosomal activity against Schistosoma mansoni BH. To be noted: read-out: Selectivity Index. It is filed as toxicity, cell-based.
Data set [14] can be described thus: Cytotoxicity against human SH-SY5Y cells assessed as reduction in cell viability after 48 hrs by MTT assay. It is filed as cell-based.
The nature of data set [15]: Selectivity index, ratio of CC50 for cytotoxicity against human SH-SY5Y cells to LC50 for antischistosomal activity against Schistosoma mansoni BH. It is filed as toxicity, cell-based. To be noted: read-out: Selectivity Index.
In data set [16] the test system is Schistosoma mansoni. Nature of the data set: Antischistosomal activity against Schistosoma mansoni BH assessed as reduction in oviposition at 25 uM after 72 hrs light microscopic method. It is filed as functional, organism-based.

Activity calls are given as the source filed them. The calls are words filed in the database; no cut-off is given here. Where only a bound is given, the exact number is not on record here.

On to `C=C1[C@@H]2CC[C@H]3[C@]4(C)CCC[C@@](C)(C(=O)O)[C@H]4CC[C@]3(C2)[C@H]1OC(=O)C=C(C)C`, for which the Activity result in data set [1] was “Non-Toxic”; in the data set with Schistosoma mansoni [2] it was 29.8%; in the data set with Schistosoma mansoni [3], 23.5%; with Schistosoma mansoni [4] it was 71.6%; in the data set on Schistosoma mansoni [5] it was 69.2%; with Schistosoma mansoni [6], 61.9%. The result with Schistosoma mansoni [7], in the data set with Schistosoma mansoni [8], in the data set on Schistosoma mansoni [9] and in the data set on Schistosoma mansoni [10] was Active. The LC50 with Schistosoma mansoni [11] amounted to 11.6 µM. The half-maximal cytotoxic concentration (CC50) at 48 h came out at 147 µM in data set [12] and 106 µM in [14]. Besides, the values for the selectivity ratio in data set [13] and in data set [15] were 12.7 and 9.1, respectively.

Turning to `C=C1C[C@@]23CC[C@H]4[C@@](C)(CCC[C@@]4(C)C(=O)O)[C@@H]2CC[C@@H]1C3` [KAURENOIC ACID], the outcome in the data set on Schistosoma mansoni [7] and in the data set with Schistosoma mansoni [8] was inactive. Also, the outcome in the data set with Schistosoma mansoni [16] and in the data set with Schistosoma mansoni [10] was Active. Also, the LC50 in the data set on Schistosoma mansoni [11] was found to be 26.1 µM. For the same molecule, the CC50 at 48 h in [12] was determined as 109 µM; in [14] it was 45.4 µM. In addition, the selectivity ratio in data set [13] came out at 4.2; in data set [15], 1.7.

With `O=C(C1CCCCC1)N1CC(=O)N2CCc3ccccc3C2C1` (stereo not given) [PRAZIQUANTEL], the Activity in the data set on Schistosoma mansoni [6] is 91.1%. Moreover, in the data set on Schistosoma mansoni [11], the LC50 amounted to 1.1 µM. Moreover, the CC50 at 48 h in data set [12] and in data set [14] was more than 200 µM each time. Besides, the selectivity ratio in data set [13] and in data set [15] was more than 180 throughout.
